Km data for 5 compounds are collected here from article doi:10.1101/416081v1 (biorxiv, 2018).

This assay has as its target T1, reTAPON1-LIKE (Trichoderma atroviride, UniProt A0A4D6GQM1).
T1 construct: 30-aa signal peptide removed (438-residue ORF, 1317 bp), N-terminal GST tag kept (pGEX-4T-1), E. coli Origami B (DE3), about 71 kDa fusion
It is filed as biochemical. As to conditions: 25 °C.
Usually Km stands for the substrate concentration at which the rate is half of its maximum. Consider `CCOC(=O)CC(SP(=O)(OC)OC)C(=O)OCC` (centres unmarked) [Malaoxon], for which the Km came out at 720 ± 10 µM.

`CNC(=O)CSP(=O)(OC)OC` [Omethoate]: the Km is 790 ± 120 µM.

For the compound `COP(=O)(OC)OC=C(Cl)Cl` [Dichlorvos, 2,2-dichlorovinyl dimethyl phosphate], the Km is 230 ± 20 µM.

As for `CCOP(=O)(OCC)Oc1nc(Cl)c(Cl)cc1Cl` [Chlorpyrifos-oxon], the Michaelis-Menten constant (Km) was 320 ± 50 µM.

For the compound `COC(=O)C=C(C)OP(=O)(OC)OC` [Mevinphos], the Km was 440 ± 40 µM.
